In US8399502B2, “Analogs of indole-3-carbinol and their use as agents against infection” (priority 2008, dated 2013):
Values after ≈ are worked out from the molar mass of the structure shown.

Tests used:
Experiment in all cases: microbe, parasite or virus in culture
Format in all cases: cell-based
[1] = tested on: Brucella abortus (BAB; Gram-negative); conditions: read-out: MIC BAB
[2] = tested on: Burkholderia mallei (BM; Gram-negative); conditions: read-out: MIC BM
[3] = tested on: Yersinia pestis (YP; Gram-negative); conditions: read-out: MIC YP
[4] = tested on: Francisella tularensis (FT; Gram-negative); conditions: read-out: MIC FT
[5] = tested on: Burkholderia pseudomallei (BP; Gram-negative); conditions: read-out: MIC BP
[6] = tested on: Bacillus anthracis (BA; Gram-positive); conditions: read-out: MIC BA

Row | Compound | MIC [1] | MIC [2] | MIC [3] | MIC [4] | MIC [5] | MIC [6]
1 | Fc1ccc2[nH]c3c(OC4CCNCC4)c4[nH]c5ccc(F)cc5c4cc3c2c1 | ≤ 0.25 µg/mL | 4 µg/mL (≈ 10.2 µM) | 8 µg/mL (≈ 20.4 µM) | ≤ 0.25 µg/mL | 8 µg/mL (≈ 20.4 µM) | ≤ 0.25 µg/mL
2 | Fc1ccc2[nH]c3c(O[C@H]4CCNC4)c4[nH]c5ccc(F)cc5c4cc3c2c1 [drawing 254] | < 0.25 µg/mL | 2 µg/mL (≈ 5.3 µM) | 1 µg/mL (≈ 2.65 µM) | 0.25 µg/mL (≈ 0.662 µM) | 4 µg/mL (≈ 10.6 µM) | 0.25 µg/mL (≈ 0.662 µM)
3 | CCOC(=O)c1ccc2[nH]c3c(OCCN)c4[nH]c5ccc(C(=O)OCC)cc5c4cc3c2c1 | 1 µg/mL (≈ 2.18 µM) | > 8 µg/mL | > 8 µg/mL | 1 µg/mL (≈ 2.18 µM) | > 8 µg/mL | 2 µg/mL (≈ 4.35 µM)
4 | Clc1ccc2[nH]c3c(OCCCc4nnn[nH]4)c4[nH]c5ccc(Cl)cc5c4cc3c2c1 | 1 µg/mL (≈ 2.22 µM) | > 8 µg/mL | > 8 µg/mL | 1 µg/mL (≈ 2.22 µM) | > 8 µg/mL | 0.5 µg/mL (≈ 1.11 µM)
5 | NCCCOc1c2[nH]c3ccc(Cl)cc3c2cc2c1[nH]c1ccc(Cl)cc12 | 0.5 µg/mL (≈ 1.26 µM) | 4 µg/mL (≈ 10 µM) | 2 µg/mL (≈ 5.02 µM) | 0.25 to 0.5 µg/mL (≈ 0.628 to 1.26 µM) | 8 µg/mL (≈ 20.1 µM) | 0.5 µg/mL (≈ 1.26 µM)
6 | Nc1nnc(N)n1CCCOc1c2[nH]c3ccc(Cl)cc3c2cc2c1[nH]c1ccc(Cl)cc12 | 1 µg/mL (≈ 2.08 µM) | > 8 µg/mL | 4 µg/mL (≈ 8.33 µM) | 1 µg/mL (≈ 2.08 µM) | > 8 µg/mL | 1 µg/mL (≈ 2.08 µM)
7 | Nc1nnnn1CCCOc1c2[nH]c3ccc(Cl)cc3c2cc2c1[nH]c1ccc(Cl)cc12 | 0.5 µg/mL (≈ 1.07 µM) | > 8 µg/mL | > 8 µg/mL | 1 µg/mL (≈ 2.14 µM) | > 8 µg/mL | 0.5 µg/mL (≈ 1.07 µM)
8 | CN(C)C1CCN(CCOc2c3[nH]c4ccc(F)cc4c3cc3c2[nH]c2ccc(F)cc23)C1 (stereo not shown) | 0.5 µg/mL (≈ 1.11 µM) | – | > 8 µg/mL | 0.5 µg/mL (≈ 1.11 µM) | – | 1 µg/mL (≈ 2.23 µM)
9 | Clc1ccc2[nH]c3c(OC4CCNC4)c4[nH]c5ccc(Cl)cc5c4cc3c2c1 (stereo not shown) | 0.25 µg/mL (≈ 0.609 µM) | 2 µg/mL (≈ 4.87 µM) | 1 µg/mL (≈ 2.44 µM) | 0.25 to 1 µg/mL (≈ 0.609 to 2.44 µM) | 4 µg/mL (≈ 9.75 µM) | 0.5 to 1 µg/mL (≈ 1.22 to 2.44 µM)
10 | Clc1ccc2[nH]c3c(OCCCNCc4ncc[nH]4)c4[nH]c5ccc(Cl)cc5c4cc3c2c1 | 0.5 µg/mL (≈ 1.05 µM) | > 8 µg/mL | 2 µg/mL (≈ 4.18 µM) | 1 µg/mL (≈ 2.09 µM) | > 8 µg/mL | 1 µg/mL (≈ 2.09 µM)
11 | CC(C)/N=C(/NCCCOc1c2[nH]c3ccc(F)cc3c2cc2c1[nH]c1ccc(F)cc12)NC(C)C | 1 µg/mL (≈ 2.03 µM) | – | 4 µg/mL (≈ 8.14 µM) | 1 µg/mL (≈ 2.03 µM) | – | 0.5 µg/mL (≈ 1.02 µM)
12 | NC1CCN(CCOc2c3[nH]c4ccc(Cl)cc4c3cc3c2[nH]c2ccc(Cl)cc23)CC1 | 1 µg/mL (≈ 2.14 µM) | – | 16 µg/mL (≈ 34.2 µM) | 0.5 µg/mL (≈ 1.07 µM) | – | 2 µg/mL (≈ 4.28 µM)
13 | NC1CCN(CCCOc2c3[nH]c4ccc(F)cc4c3cc3c2[nH]c2ccc(F)cc23)CC1 | 0.5 µg/mL (≈ 1.11 µM) | – | 2 µg/mL (≈ 4.46 µM) | 0.125 to 0.5 µg/mL (≈ 0.279 to 1.11 µM) | – | 0.5 µg/mL (≈ 1.11 µM)
14 | Clc1ccc2[nH]c3c(OCCCn4cncn4)c4[nH]c5ccc(Cl)cc5c4cc3c2c1 | – | – | – | 0.25 µg/mL (≈ 0.555 µM) | – | 0.5 µg/mL (≈ 1.11 µM)
15 | N[C@H]1CCN(CCCOc2c3[nH]c4ccc(F)cc4c3cc3c2[nH]c2ccc(F)cc23)C1 | 1 µg/mL (≈ 2.3 µM) | – | 4 µg/mL (≈ 9.21 µM) | 0.5 µg/mL (≈ 1.15 µM) | – | 1 µg/mL (≈ 2.3 µM)
16 | Clc1ccc2[nH]c3c(OCCCNCc4cnc[nH]4)c4[nH]c5ccc(Cl)cc5c4cc3c2c1 | 0.5 µg/mL (≈ 1.05 µM) | – | 4 µg/mL (≈ 8.36 µM) | 1 µg/mL (≈ 2.09 µM) | – | 0.5 µg/mL (≈ 1.05 µM)
17 | Clc1ccc2[nH]c3c(OCCCn4cnnc4)c4[nH]c5ccc(Cl)cc5c4cc3c2c1 | – | – | – | 0.5 µg/mL (≈ 1.11 µM) | – | 0.25 µg/mL (≈ 0.555 µM)
18 | OC1CN(CCCOc2c3[nH]c4ccc(Cl)cc4c3cc3c2[nH]c2ccc(Cl)cc23)C1 | 1 µg/mL (≈ 2.2 µM) | – | 4 µg/mL (≈ 8.8 µM) | 0.5 µg/mL (≈ 1.1 µM) | – | 0.5 µg/mL (≈ 1.1 µM)
19 | CC(CN(C)C)Oc1c2[nH]c3ccc(F)cc3c2cc2c1[nH]c1ccc(F)cc12 (stereo not shown) | 0.5 µg/mL (≈ 1.27 µM) | – | 16 µg/mL (≈ 40.7 µM) | 0.5 µg/mL (≈ 1.27 µM) | – | 1 µg/mL (≈ 2.54 µM)
20 | CCN(CC)CCOc1c2[nH]c3ccc(F)cc3c2cc2c1[nH]c1ccc(F)cc12 | 1 µg/mL (≈ 2.45 µM) | – | > 16 µg/mL | 0.5 µg/mL (≈ 1.23 µM) | – | 1 µg/mL (≈ 2.45 µM)
